{
  "source": "patent US12172988B2",
  "about": "“Anticancer and antifungal splice modulators” (priority 2021, dated 2024)",
  "assay_type_in_all_cases": "cell-based, human",
  "key": {"[1]": {"system": "HCT116 colorectal carcinoma cells", "experiment": "MTS cell viability / cell growth inhibition assay", "conditions": "for GI50: Homo sapiens, HCT-116, 72 h", "method": "With milligram quantities of 1a-1i at hand, we began our studies to evaluate the relative efficacy of each analogue using cell growth inhibition studies in HCT116 colorectal carcinoma cells. As reported in FIG. 3, GI50 values were collected for each analog after a 72 h treatment using the MTS cell viability assay (Table 12). Under these conditions, the natural FD-895 (1), 3S-FD-895 (1a) 17S-FD-895 (1d), 17-methoxy-FD-895 (1e) provided activities of <10 nM.\nHCT-116 cells was cultured in McCoy's 5a (Life Technologies) supplemented with 10% fetal bovine serum (FBS), 2 mM L-glutamine, and 100 U mL^−1 of penicillin and 100 μg mL^−1 of streptomycin at 37° C. in an atmosphere of 5% CO2. Compounds were dissolved in DMSO (MilliporeSigma). Cells were treated with 1-1j in media with ≥0.5% DMSO for 4-72 h.\nStudies were conducted in […] cell culture plates. HCT-116 plated at 5×10^3 cells/well were cultured for 24 h and then treated with analogs 1-1j for 4-72 h, then washed twice with 100 μL PBS. PBS (100 μL) was added to each well, followed by 20 μL of CellTiter Aqueous One Solution (Promega). After 2 h at 37° C., absorbance readings were taken at 490 nm (test wavelength) and 690 nm (reference wavelength). GI50 values were calculated in Prism (GraphPad) using greater 3 replicates.\n(§1) Cells were treated with 1 or 1a-1j in media (McCoy's 5a (Life Technologies) supplemented with 10% FBS, 2 mM L-glutamine, and 100 U mL^−1 of penicillin and 100 μg mL^−1 of streptomycin 0.5% DMSO) for 4 h or 24 h. Untreated cells were considered were used as negative control. Total RNA was isolated using mirVana miRNA isolation kit (Life Technologies). A 1 μg sample of RNA was subjected to DNAseI from a TURBO DNA free kit (Life Technologies). The cDNA was prepared by using SuperScript III reverse transcriptase kit (Life Technologies). The amount of unspliced RNA for different genes was determined using Power SYBR Green PCR master mix (Applied Biosystems) by qPCR using specific primers for each gene. qPCR using 2.5 μM of each primer was performed on 5 ng of the obtained cDNA. qPCR conditions were as follows: 95° C. for 10 min for one cycle, then 95° C. for 10 min for one cycle, then 95° C. for 30 s, 55° C. for 60 s, 72° C. for 60 s, for 40 cycles using the MXPro. Quantification cycle (Cq) values were identified for each sample, and then RNA levels were calculated using 2-ΔΔCT method. GAPDH was used as a control for normalization. At least three replicates were conducted for each compound. Namely, all genes explored in this study were evaluated from the same cell cultures. Here, individual cultures were used for each compound explored and at least three replicates were used for each compound. While experimental variation occurred between the different compound treatments, the levels of the different intron retention, exon skipping or RNA expression were collected from the same cellular material. Statistics were calculated using a standard one-way ANOVA; p values were represented so that * signifies p<0.0001. HCT116 were treated with analogs 1-1j ranging from 0.1-5000 nM for 72 hours, then cell viability was measured using the MTS assay. GI50 values and confidence intervals were calculated using GraphPad (Table 12)."}, "[2]": {"system": "DNAJB1", "experiment": "qPCR splicing analysis, DNAJB1 intron retention", "conditions": "HCT116, 4 h, 20 times GI50, qPCR relative to GAPDH", "method": "(§2) HCT116 tumor cells were treated with each analogue at 20 times the G150 value (Table 12) for 4 hours and then cellular RNA was isolated and purified for qPCR. Primers were designed to evaluate intron retention or exon skipping, direct responses to splice modulator treatment. Genes evaluated included those involved in splicing regulation (SF3A1, SF3A3, SF3B1, SF3B2), apoptosis (MCL-1L), protein folding (DNAJB1), and cell cycle regulation (AURKA, PLK-1) relative to the unspliced control GAPDH. For alternative splicing regulator (SF2), primers were designed to evaluate gene expression, which changes in response splice modulator treatment for SF2 relative to the unspliced control GAPDH. (−) denotes untreated cells.\nas §2, with “analogues” for “each analogue”, “100 nM (light grey), 250 nM (grey), or 500 nM (black)” for “20 times the G150 value (Table 12)”, “24 h” for “4 hours”, “(MCL-1L), and” for “(MCL-1L),”, “(DNAJB1),” for “(DNAJB1), and cell cycle regulation (AURKA, PLK-1)”, “(—)” for “(−)”\n(§3) Next, we turned our efforts to explore the ability of these analogues to modulate splicing. […] We treated cells for 4 h so that we could evaluate early changes in splicing activity, and then cellular RNA was isolated and purified for analyses by qPCR (FIG. 14). Most importantly, none of the concentrations tested led to significant changes in cell viability, ensuring that changes in gene expression were not due to cell death.\n(§4) For these studies, we evaluated the expression of genes involved in splicing regulation (SF3A1, SF3A3, SF3B1, SF3B2), apoptosis (MCL-1L), protein folding (DNAJB1), and cell cycle regulation (AURKA, PLK-1) relative to the unspliced control GAPDH. Primers were designed to evaluate intron retention or exon skipping, direct responses to splice modulator treatment. The master splicing regulator alternative splicing factor (SF2) was also evaluated, with the primers for this gene designed to evaluate overall gene expression, which changes in response to splice modulator treatment.\n(§5) From this 4 h study (FIG. 14), a small set of analogs (1, 1b, 1g, 1d, 1e, 1i and 1j) were selected to evaluate if effects on splicing when presented for a longer 24 h period. […] Using identical procedures as that used for 4 h, HCT116 cells were treated with three concentrations (100 nM, 250 nM and 500 nM) of each analog for 24 h. Multiple concentrations were used as a means to check further validate the use of the GI50 concentration in our prior study (FIG. 14). As before, none of the concentrations tested led to significant changes in cell viability over the 24-hour time window, ensuring that changes in gene expression were not due to cell death.\n(§6) Cells were treated with 1 or 1a-1j in media (McCoy's 5a (Life Technologies) supplemented with 10% FBS, 2 mM L-glutamine, and 100 U mL^−1 of penicillin and 100 μg mL^−1 of streptomycin 0.5% DMSO) for 4 h or 24 h. Untreated cells were considered were used as negative control. Total RNA was isolated using mirVana miRNA isolation kit (Life Technologies). […]"}, "[3]": {"system": "SF3A1", "experiment": "qPCR splicing analysis, SF3A1 intron retention", "conditions": "HCT116, 4 h, 20 times GI50, qPCR relative to GAPDH", "method": "as §2\nas §2, with “analogues” for “each analogue”, “100 nM (light grey), 250 nM (grey), or 500 nM (black)” for “20 times the G150 value (Table 12)”, “24 h” for “4 hours”, “(MCL-1L), and” for “(MCL-1L),”, “(DNAJB1),” for “(DNAJB1), and cell cycle regulation (AURKA, PLK-1)”, “(—)” for “(−)”\nas §3, §4, §5\nas §6, with “Technologies). A 1 μg sample of RNA was subjected to DNAseI from a TURBO DNA free kit (Life Technologies). The cDNA was prepared by using SuperScript III reverse transcriptase kit (Life Technologies).” for “Technologies).”"}, "[4]": {"system": "HCT116 tumor cells", "experiment": "qPCR structure-splicing profile over the gene panel", "conditions": "HCT116, 24 h, 100, 250, 500 nM, compared to 1", "method": "as §2, with “analogues” for “each analogue”, “100 nM (light grey), 250 nM (grey), or 500 nM (black)” for “20 times the G150 value (Table 12)”, “24 h” for “4 hours”, “(MCL-1L), and” for “(MCL-1L),”, “(DNAJB1),” for “(DNAJB1), and cell cycle regulation (AURKA, PLK-1)”, “(—)” for “(−)”\nas §4, §5, §1"}, "[5]": {"conditions": "HCT116, 72 hours, MTS assay, 0.1-5000 nM, read-out: GI50 value"}},
  "note": "Read-outs that look alike come from different tables or passages of the source.",
  "data": [
    {"smiles": "CC[C@H](OC)[C@@H](C)[C@H]1O[C@@H]1[C@H](O)[C@H](C)/C=C/C=C(\\C)[C@@H]1OC(=O)C[C@H](O)CC[C@@](C)(O)[C@@H](OC(C)=O)/C=C/[C@H]1C", "note": "[Analog 1c, 10R,11R-FD-895]", "values": [
      {"measurement": "GI50", "setting": "[1]; read-out: GI50 value", "value": 36600, "unit": "nM"},
      {"measurement": "GI50", "setting": "[1]; read-out: GI50 value (text)", "value": 37000, "unit": "nM"}
    ]},
    {"smiles": "CC[C@H](OC)[C@@H](C)[C@H]1O[C@@H]1[C@H](OC)[C@H](C)/C=C/C=C(\\C)[C@H]1OC(=O)C[C@H](O)CC[C@@](C)(O)[C@@H](OC(C)=O)/C=C/[C@@H]1C", "note": "[Analog 1e, 17-methoxy-FD-895]", "values": [
      {"measurement": "cell growth inhibitory activity compared to FD-895", "setting": "[1]; HCT-116 cells", "value": "comparable cell growth inhibitor activity as 1"},
      {"measurement": "GI50", "setting": "[1]; [5]", "value": 2.21, "unit": "nM"},
      {"measurement": "DNAJB1 intron 2 retention (level of intron retention)", "setting": "[2]", "value": "highest level of intron retention"},
      {"measurement": "SF3A1 intron 6 retention (level of intron retention)", "setting": "[3]", "value": "more effective than 1"},
      {"measurement": "splicing activity over the genes tested", "setting": "[4]", "value": "comparable or slightly reduced splice modulatory activity as 1"}
    ]},
    {"smiles": "CC[C@H](OC)[C@@H](C)[C@H]1O[C@@H]1[C@@H](OC)[C@H](C)/C=C/C=C(\\C)[C@H]1OC(=O)C[C@H](O)CC[C@@](C)(O)[C@@H](OC(C)=O)/C=C/[C@@H]1C", "note": "[Analog 1f, 17-methoxy-17S-FD-895]", "values": [
      {"measurement": "fold loss in activity", "setting": "[1]; HCT116 GI50, double modification (methylation and inversion at C17)", "value": 10, "unit": "fold"},
      {"measurement": "GI50", "setting": "[1]; [5]", "value": 37.6, "unit": "nM"},
      {"measurement": "GI50", "setting": "[1]; HCT116, 72 h treatment, MTS cell viability assay, read-out: GI50 value", "value": 38, "unit": "nM"},
      {"measurement": "SF3A1 intron 6 retention (level of intron retention)", "setting": "[3]", "value": "more effective than 1"}
    ]},
    {"smiles": "CC[C@H](OC)[C@@H](C)[C@H]1O[C@@H]1[C@@H](O)[C@H](C)/C=C/C=C(\\C)[C@H]1OC(=O)C[C@H](O)CC[C@@](C)(O)[C@H](OC(C)=O)/C=C/[C@@H]1C", "note": "[Analog 1h, 7R,17S-FD-895]", "values": [
      {"measurement": "fold less effective compared to 1b", "setting": "[1]; HCT116 GI50, compared to 1b", "value": 1.8, "unit": "fold"},
      {"measurement": "fold less effective compared to 1d", "setting": "[1]; HCT116 GI50, compared to 1d", "value": 380, "unit": "fold"},
      {"measurement": "GI50", "setting": "[1]; read-out: GI50 value", "value": 806, "unit": "nM"},
      {"measurement": "GI50", "setting": "[1]; read-out: GI50 value (text)", "value": 806, "unit": "nM"}
    ]}
  ]
}
